Patent US10538561B2, “Peptide for treating inflammatory diseases” (priority 2015, dated 2020)

How the values were obtained:
[1] = system: Human Keratinocytes (HaCaT); assay: Annexin-V assay; type: cell-based; conditions: 10 μM-50 μM
Experimental: Cell lines: Human Keratinocytes (HaCaT); test Item (TI): IS181; Treatment regimen: treated twice (once after 24 hours)-48 hours; concentration range: 100 6 g/ml-5000 6 g/ml. […] (c) cells were treated with IS181 for 24 hours; (d) after 24 hours, cells were again treated with IS181 for 24 hours; (e) after 48 hours of first treatment, cells were stained with Annexin-V reagent and acquired on flow cytometer; (f) fold increase in apoptotic cells (early and late apoptotic) and necrotic cells was calculated with respect to untreated control cells. Positive control: Curcumin. […] (FIG. 4)

[2] = system: VEGF; assay: VEGF inhibition in keratinocytes (ELISA); type: cell-based, Human; conditions: HaCaT
Experimental: Cell lines: Human Keratinocytes (HaCaT); test item: IS181; treatment regimen: single addition—24 hours; concentration range: 0.1 μg/ml-100 μg/ml. […] Cells were serum-starved for another 24 hours (0% FBS). Cells were treated with IS181 for 24 hours. Supernatants were collected and stored at −20° C. till analysed. Levels of VEGF were analysed in supernatants by ELISA. Percent inhibition of VEGF secretion was calculated with reference to untreated levels. Positive control: curcumin; retinoic acid (at non-cytotoxic concentrations).

[3] = Cell viability of splenocytes (MTT); type: cell-based, mouse; conditions: mouse
Experimental: (§1) Cell lines: mouse splenocytes; test item: IS181; treatment regimen: single addition—24 hours; concentration range: 10 μg/ml-5000 μg/ml.A) Identification of non-cytotoxic concentrations: splenocytes were treated with IS181 for 24 hours. Effect on cell viability was assessed by MTT assay. Concentrations leading to >75% cell viability were selected for IL-17 assay. B) IL-17 assay: splenocytes were treated with IS181 in presence of ConA stimulation for 24 hours. Supernatants were collected and stored at −20° C. till analysed. Levels of IL-17 were analysed in supernatants by ELISA. Percent inhibition of IL-17 secretion was calculated with reference to ConA treated levels. Positive control: curcumin.

[4] = system: IL-17; assay: IL-17 secretion in ConA stimulated splenocytes; type: cell-based, mouse; conditions: splenocytes + ConA, 24 h
Experimental: as §1

[5] = Cell viability of THP-1 (MTT); type: cell-based, Human; conditions: human
Experimental: (§2) Cell lines: Human monocytic cell line (THP-1); test item: IS181: treatment regimen; single addition—24 hours; concentration range: 10 μg/ml-5000 μg/ml. A) Identification of non-cytotoxic concentrations: THP-1 cells were treated with IS181 for 24 hours; effect on cell viability was assessed by MTT assay; concentrations leading to >75% cell viability were selected for IL-23 assay. […] Positive control: curcumin. […] Since supernatants corresponding to 5 concentrations were to be tested for […], we also tested 1 mg/ml.

[6] = system: IL-23; assay: IL-23 secretion in LPS+IFN-γ stimulated THP-1; type: cell-based, Human; conditions: THP-1 + LPS + IFN-γ, 24 h
Experimental: as §2

[7] = system: Human endothelial cells (EA.hy 926); assay: Inhibition of FBS stimulated endothelial cell proliferation (MTT); type: cell-based
Experimental: Cell line: Human endothelial cells (EA.hy 926); test item: IS 181: treatment regimen: multiple additions (3)-72 hours; concentration range: 1 6 g/ml to 5000 6 g/ml (triplicate wells); sera condition: medium containing 10% FBS. […] The cells were then subjected to complete serum starvation. The cells were retreated with 10% FBS to stimulate cellular proliferation. […] Inhibition of FBS stimulated cell proliferation was measured using MTT assay. End point: percentage inhibition of FBS stimulated cell proliferation. Positive controls: anthralin; paclitaxel.

[8] = system: Human endothelial cells (EA.hy 926); assay: Inhibition of endothelial cell migration (wound); type: cell-based; conditions: Homo sapiens, EA.hy 926; EA.hy926, 14 h, 10 nM; read-out: % Inhibition of migration with respect to respective 0 h control
Experimental: Cell line: Human endothelial cells (EA.hy 926); test item: IS 181; treatment regimen: single addition; concentration range: 0.1 μg/ml-1 mg/ml; sera condition: medium containing 10% FBS. […] The cells were then subjected to serum starved with medium containing 1% FBS for 24 hours. 24 hours post serum starvation, the wounds (straight line) were created in the middle of the well using a sterile 200 μl pipette tip. Cells were washed twice using DMEM followed by treatment with different concentrations of IS 181 in DMEM containing 10% FBS. Images of wound were taken at 0 h and 14 h at three points in single well and distance of wound closure was measured using Image J software. End point: image analysis of cell migration of different concentrations of IS 181 treated cells at 0 hour and after 14 hours of treatment. Percentage inhibition in cell migration of different concentrations of IS 181 treated cells were calculated after 14 h of treatment with respect to respective 0 hours (FIG. 13). […] (FIGS. 14A-14B).

[9] = system: Human melanoma (SK-MEL-28); assay: Cell viability (MTT assay) in SK-MEL-28; type: cell-based
Experimental: (§3) Cell Lines/Cells: Human Keratinocytes (HaCaT); Human melanoma (SK-MEL-28); Human PBMCs. Test Item: IS181 Treatment regimen: Single addition—24 h, ^#Multiple additions (3)−72 h; Concentration range: 1 ng/ml-2 mg/ml (triplicate wells); Sera Condition: […] Method of estimation: MTT assay. […] Positive control: Triton-X-100, Doxorubicin Hydrochloride.

[10] = system: Human PBMCs; assay: Cell viability (MTT assay) in PBMCs; type: cell-based
Experimental: as §3

[11] = system: HaCaT (Human keratinocyte) cell line; assay: Mitochondrial membrane potential by JC-1 assay; type: cell-based
Experimental: (§4) For testing Apoptosis the Human Keratinocytes (HaCaT) cell line has been employed. The growth conditions are DMEM containing 1% FBS. […] Test concentration range is IS181 is tested at the highest (Qualitative analysis) effective concentrations selected on the basis of Quantitative JC-1 assay. The method of estimation is Mitochondrial membrane depolarization by JC-1 assay (Early apoptosis), LDH enzyme release (Necrosis). Treatment regimen & time points are JC-1 assay—Single addition, 20 h; LDH assay—Single addition, 24 h; Positive control: Triton-X-100, Doxorubicin-hydrochloride
Quantitative effect on Δψm (Red fluorescence/Green fluorescence) in HaCaT cells post 20 hours of treatment. […] Evaluation (Qualitative and quantitative) of differential JC-1 staining in treated cells after 20 h on incubation with the test peptides.

[12] = system: HaCaT (Human keratinocyte); assay: LDH enzyme release assay; type: cell-based
Experimental: as §4
End-point: Percentage increase in LDH activity in treated cells with respect to untreated.

COc1cc(/C=C/C(=O)CC(=O)/C=C/c2ccc(O)c(OC)c2)ccc1O [Curcumin, reference compound]
increase in early apoptotic cells [1]: 12.8-152.5 fold | increase in late apoptotic cells [1]: 2.4-138.4 fold | VEGF inhibition ([2]; 20 uM): did not result in any VEGF inhibition | Conc. of VEGF ([2]; 24 h, 1 μM): 3059.1 pg/mL | inhibition at 1 µM ([2]; Homo sapiens, 24 h, 1 μM, read-out: % Inhibition of VEGF wrt untreated (basal) levels): 14.9% | viability at 24 h [3]: > 75% | viability at 24 h, 1 µM [3]: 97.5% | viability at 24 h, 10 µM [3]: 82% | viability at 24 h, 20 µM [3]: 40.4% | inhibition at 1 µM ([4]; Mus musculus, Splenocyte, 1 μM, read-out: % Inhibition of IL-17 wrt Control (ConA)): 40.5% | inhibition at 10 µM ([4]; Mus musculus, Splenocyte, 10 μM, read-out: % Inhibition of IL-17 wrt Control (ConA)): 42.5% | Conc. of IL-17 ([4]; 1 μM): 27.7 pg/mL | Conc. of IL-17 ([4]; 10 μM): 26.7 pg/mL | viability at 24 h, 1 µM [5]: 94.7% | viability at 24 h, 10 µM [5]: 103% | viability at 24 h, 20 µM [5]: 107% | inhibition at 1 µM ([6]; Homo sapiens, 1 μM, read-out: % Inhibition of IL-23 wrt Control (LPS + IFN-γ)): 91.6% | inhibition at 10 µM ([6]; Homo sapiens, 10 μM, read-out: % Inhibition of IL-23 wrt Control (LPS + IFN-γ)): 90.6% | Conc. of IL-23 ([6]; 1 μM): 7.1 pg/mL | Conc. of IL-23 ([6]; 10 μM): 7.9 pg/mL

CC(=O)O[C@H]1C(=O)[C@@]2(C)[C@H]([C@H](OC(=O)c3ccccc3)[C@]3(O)C[C@H](OC(=O)[C@H](O)[C@@H](NC(=O)c4ccccc4)c4ccccc4)C(C)=C1C3(C)C)[C@]1(OC(C)=O)CO[C@@H]1C[C@@H]2O [Paclitaxel]
Absorbance (Mean ± SD) at 540 nm ([7]; EA.hy926, 10 nM): 0.36 ± 0.012 | Absorbance (Mean ± SD) at 540 nm ([7]; EA.hy926, 50 nM): 0.23 ± 0.008 | Absorbance (Mean ± SD) at 540 nm ([7]; EA.hy926, 100 nM): 0.19 ± 0.006 | Absorbance (Mean ± SD) at 540 nm ([7]; EA.hy926, 500 nM): 0.16 ± 0.003 | Absorbance (Mean ± SD) at 540 nm ([7]; EA.hy926, 1000 nM): 0.06 ± 0.001 | inhibition at 0.01 µM ([7]; Homo sapiens, EA.hy 926, EA.hy926, 10 nM, read-out: ¾ Inhibition of FBS stimulated cell growth): 27.6% | inhibition at 0.05 µM ([7]; Homo sapiens, EA.hy 926, EA.hy926, 50 nM, read-out: ¾ Inhibition of FBS stimulated cell growth): 58.9% | inhibition at 0.1 µM ([7]; Homo sapiens, EA.hy 926, EA.hy926, 100 nM, read-out: ¾ Inhibition of FBS stimulated cell growth): 62.7% | inhibition at 0.5 µM ([7]; Homo sapiens, EA.hy 926, EA.hy926, 500 nM, read-out: ¾ Inhibition of FBS stimulated cell growth): 70.1% | inhibition at 1 µM ([7]; Homo sapiens, EA.hy 926, EA.hy926, 1000 nM, read-out: ¾ Inhibition of FBS stimulated cell growth): 89.4% | inhibition at 0.01 µM [8]: 71%

Triton X-100 [reference compound]
cytotoxicity [9]: > 90% | cytotoxicity [10]: 70% to 77% | Green fluorescence intensity (RFU) ([11]; 0.01%): 20.5 ± 17.68 RFU | Red fluorescence intensity (RFU) ([11]; 0.01%): 33.25 ± 32.17 RFU | Red fluorescence intensity/Green fluorescence intensity ([11]; 0.01%): *1.62 | Green fluorescence intensity (RFU) ([11]; 0.1%): 22.33 RFU | Red fluorescence intensity (RFU) ([11]; 0.1%): 16.33 RFU | Red fluorescence intensity/Green fluorescence intensity ([11]; 0.1%): *0.73 | % Increase with respect to untreated (LDH) ([12]; 0.01%): −30.27% | LDH Activity (mU/ml) ([12]; 0.01%): 44.11 mU/ml | % Increase with respect to untreated (LDH) ([12]; 0.1%): ***95.84% | LDH Activity (mU/ml) ([12]; 0.1%): 123.88 mU/ml
